Assay results as given in patent publication US5948814A, “Genistein for the treatment of cystic fibrosis” (priority 1998, dated 1999).
Where “and” joins values, the source holds several entries; their conditions need not be identical. Identical values can stand only once.

Columns and labels:
[1] = test system: topoisomerases; conditions: cited from earlier work
[2] = test system: acid secretion and osteopathic bone resorption; conditions: cited from earlier work
[3] = target: T1, ΔF508-CFTR (Homo sapiens, UniProt P13569, DEL508-508); assay: CFTR gating in excised inside-out patches, NIH/3T3-ΔF508 cells
Procedure: FIGS. 9A and B are recordings of the effects of genistein on CFTR gating in excised inside-out patches from NIH/3T3-CFTR or NIH/3T3-ΔF508 cells. CFTR channels were activated by 10 μM forskolin +20 nM calyculin A before excision into an inside-out configuration. Presence of calyculin A helps to slow channel dephosphorylation. (A): continuous 14.5 minute recording of a patch containing wt-CFTR. Expanded traces are 22 seconds in length. ATP (500 μM) with or without 20 μM genistein was present as indicated. (B): 2 traces of 44 seconds in length of an excised inside-out patch with CFTR-ΔF508.
(§1) Electrophysiology: CFTR channel currents were recorded at room temperature (~22° C.) with a patch-clamp amplifier (EPC-9, Heka Electronic), filtered at 100 Hz with a built-in three-pole Bessel filter, and stored on videotapes. Data were subsequently refiltered at 25 Hz with an eight-pole Bessel filter (Frequency Device, Havervill, Mass.) and captured onto a hard disk at a sampling rate of 50 Hz. […] Patch-clamp electrodes were made from Corning 7052 glass capillaries (Warner Instrument, Hammed, Conn.). The pipette resistance was usually 3-5 M.OMEGA., and the seal resistance was >20 G.OMEGA.. The pipette solution contained (in mM) 140 N-methyl-D-glucamine chloride (NMDG-C1), 2 MgCl2, 5Ca Cl2, and 10 HEPES (pH 7.4 with NMDG). The superfusion solution contained (in mM) 150 […], 2 MgCl2, 1 EGTA, 5 glucose, and 5 HEPES (pH 7.4 with NaOH). In excised inside-out patch experiments, the bath solution contained (in mM) 130 MNDG-Cl, 10 EGTA, 10 HEPES, 20 tetraethylammonium chloride, 8 Tris, and 2 MgCl2 (pH 7.4 with NMDG). Pipette potential was held at 50 mV relative to the bath. Downward deflections represent channel opening.
Channels were first activated in cell-attached patches with forskolin plus calyculin A, a membrane-permeant phosphatase inhibitor [Suganuma et al., 1991]. Patches were then excised into an inside-out configuration.

[4] = test system: protein phosphatase; conditions: cited from earlier work
[5] = test system: tyrosine kinases; conditions: cited from earlier work
[6] = target: T1, ΔF508-CFTR; assay: Patch clamp, cell-attached patches, macroscopic current, NIH/3T3-ΔF508 cells
Procedure: FIGS. 3A and B show recordings of the potentiation of wild-type (wt) and ΔF508-CFTR channel activity by genistein. Channels in cell-attached patches from NIH/3T3-CFTR (FIG. 3A) and NIH/3T3-ΔF508cells (FIG. 3B), were stimulated as indicated with 10 μM forskolin and 50μ genestein.
Cell culture: NIH/3T3-CFTR, NIH/3T3-ΔF508, and NIH/3T3 mock cells (generous gifts from Dr. Richard Mulligan of Children's Hospital and Medical Center, Harvard Medical School) were grown as described [Bradbury et al., 1992] at 37° C. and 5% CO2 in Dulbecco's modified Eagle's medium-H21 supplemented with 10% new-born calf serum, 4 mM glutamine, 25 mM glucose, 100 μg/ml penicillin, 100 μg/ml streptomycin, and 50 μg/ml gentamicin. Cells were maintained in T75 flasks, passaged at 90-95% confluency, and split one to four. For measurements of I^- efflux and in vivo phosphorylation, cells were seeded onto 35-mm dishes at […]. For patch-clamp experiments, cells were grown on coverglass chips in 35-mm culture dishes. Media were replaced 24 hours after plating and thereafter every 48 hours. In all cases, media were changed on the day before I^- efflux studies, NIH/3T3-ΔF508 cells were transferred to 27° C. three days before use, and 1 day prior to study, media were supplemented with 5 mM butyrate. For patch-clamp studies, where a constant level of functional ΔF508-CFTR was not essential, NIH/3T3-ΔF508 cells were cultured at 27° C. for 2-6 days before use. Calu-3 cells were grown and maintained as described by Hunter [1995].
as §1, with “In excised inside-out patch experiments, the bath solution contained (in mM) 130 MNDG-Cl, 10 EGTA, 10 HEPES, 20 tetraethylammonium chloride, 8 Tris, and 2 MgCl2 (pH 7.4 with NMDG). Pipette potential was held at 50 mV relative to the bath. Downward deflections represent channel opening.” left out
Statistics: Mean currents and variance were estimated with Igor (Wavemetrics, Lake Oswego, Oreg.). […] Po was calculated from patches containing a single channel by dividing the open channel current amplitude with the mean-current amplitude. […] Calculated values are presented as means±SE. […]

[7] = target: T1, ΔF508-CFTR; assay: Patch cramming, ΔF508-CFTR patch excised and crammed into NIH/3T3-CFTR cell; format: cell-based; set-up: expressed in transfected cells; host or cells: NIH/3T3 cells, stably transfected (NIH/3T3-ΔF508, gift of Dr. Richard Mulligan); conditions: ΔF508-CFTR crammed into NIH/3T3-CFTR cell; 10 μM forskolin, 50 μM genistein; n=2
Text: (§2) Downward deflections represent channel opening.

[8] = target: T2, wt-CFTR (Homo sapiens, UniProt P13569)
Procedure: as §1

[9] = target: T2, wt-CFTR; format: cell-based; set-up: expressed in transfected cells; conditions: 50 μM genistein on forskolin; HEK293; n=10
Text: Transient expression of wt-CFTR in HEK293 cells: The pRBG4 vector containing wt-CFTR cDNA is a generous gift from Drs. Kevin Gunderson and Ron Kopito of Stanford University. HEK293 cells were transfected with the calcium phosphate method as described previously [Gunderson et al., 1994].
as §2

T1 sequence (P13569 with tags, fused parts or gaps DEL508-508): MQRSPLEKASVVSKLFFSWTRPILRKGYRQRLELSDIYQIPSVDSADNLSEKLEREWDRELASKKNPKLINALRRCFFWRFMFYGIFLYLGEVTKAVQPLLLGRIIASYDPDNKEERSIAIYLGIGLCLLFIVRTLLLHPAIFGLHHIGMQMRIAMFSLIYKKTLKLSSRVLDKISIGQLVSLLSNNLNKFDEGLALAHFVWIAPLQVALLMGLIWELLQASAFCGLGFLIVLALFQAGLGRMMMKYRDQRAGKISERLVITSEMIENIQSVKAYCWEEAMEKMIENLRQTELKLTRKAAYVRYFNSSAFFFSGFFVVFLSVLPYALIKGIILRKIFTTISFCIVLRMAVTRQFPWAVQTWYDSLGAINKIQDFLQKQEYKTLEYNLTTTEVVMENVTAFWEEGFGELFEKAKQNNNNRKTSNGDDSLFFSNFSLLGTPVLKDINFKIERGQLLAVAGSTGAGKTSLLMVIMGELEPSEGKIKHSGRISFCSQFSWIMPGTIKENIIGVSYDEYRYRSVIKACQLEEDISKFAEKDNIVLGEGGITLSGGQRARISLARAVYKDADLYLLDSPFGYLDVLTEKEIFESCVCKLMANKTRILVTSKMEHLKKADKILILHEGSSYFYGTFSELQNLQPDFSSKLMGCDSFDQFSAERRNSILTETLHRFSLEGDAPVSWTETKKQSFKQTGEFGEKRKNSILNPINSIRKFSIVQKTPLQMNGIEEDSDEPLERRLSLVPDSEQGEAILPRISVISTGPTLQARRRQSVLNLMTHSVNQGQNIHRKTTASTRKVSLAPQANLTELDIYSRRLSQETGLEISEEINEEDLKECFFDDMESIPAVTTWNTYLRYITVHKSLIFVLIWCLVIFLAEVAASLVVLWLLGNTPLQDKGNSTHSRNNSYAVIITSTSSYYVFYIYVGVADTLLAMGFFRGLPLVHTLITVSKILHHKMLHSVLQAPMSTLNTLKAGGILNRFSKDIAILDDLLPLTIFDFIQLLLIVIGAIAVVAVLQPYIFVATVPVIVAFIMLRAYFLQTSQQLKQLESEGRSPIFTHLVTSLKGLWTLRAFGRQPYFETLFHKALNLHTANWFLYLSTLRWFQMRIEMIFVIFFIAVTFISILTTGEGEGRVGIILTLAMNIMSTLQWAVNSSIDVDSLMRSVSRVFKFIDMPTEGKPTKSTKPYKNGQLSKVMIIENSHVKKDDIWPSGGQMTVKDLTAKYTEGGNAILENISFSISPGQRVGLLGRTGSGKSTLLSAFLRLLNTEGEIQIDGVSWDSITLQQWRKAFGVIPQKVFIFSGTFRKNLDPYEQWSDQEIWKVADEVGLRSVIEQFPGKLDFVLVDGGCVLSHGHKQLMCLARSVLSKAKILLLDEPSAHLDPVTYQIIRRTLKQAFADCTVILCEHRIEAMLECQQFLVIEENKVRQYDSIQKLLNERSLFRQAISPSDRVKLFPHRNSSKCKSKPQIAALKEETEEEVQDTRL
T2 sequence (P13569 whole entry): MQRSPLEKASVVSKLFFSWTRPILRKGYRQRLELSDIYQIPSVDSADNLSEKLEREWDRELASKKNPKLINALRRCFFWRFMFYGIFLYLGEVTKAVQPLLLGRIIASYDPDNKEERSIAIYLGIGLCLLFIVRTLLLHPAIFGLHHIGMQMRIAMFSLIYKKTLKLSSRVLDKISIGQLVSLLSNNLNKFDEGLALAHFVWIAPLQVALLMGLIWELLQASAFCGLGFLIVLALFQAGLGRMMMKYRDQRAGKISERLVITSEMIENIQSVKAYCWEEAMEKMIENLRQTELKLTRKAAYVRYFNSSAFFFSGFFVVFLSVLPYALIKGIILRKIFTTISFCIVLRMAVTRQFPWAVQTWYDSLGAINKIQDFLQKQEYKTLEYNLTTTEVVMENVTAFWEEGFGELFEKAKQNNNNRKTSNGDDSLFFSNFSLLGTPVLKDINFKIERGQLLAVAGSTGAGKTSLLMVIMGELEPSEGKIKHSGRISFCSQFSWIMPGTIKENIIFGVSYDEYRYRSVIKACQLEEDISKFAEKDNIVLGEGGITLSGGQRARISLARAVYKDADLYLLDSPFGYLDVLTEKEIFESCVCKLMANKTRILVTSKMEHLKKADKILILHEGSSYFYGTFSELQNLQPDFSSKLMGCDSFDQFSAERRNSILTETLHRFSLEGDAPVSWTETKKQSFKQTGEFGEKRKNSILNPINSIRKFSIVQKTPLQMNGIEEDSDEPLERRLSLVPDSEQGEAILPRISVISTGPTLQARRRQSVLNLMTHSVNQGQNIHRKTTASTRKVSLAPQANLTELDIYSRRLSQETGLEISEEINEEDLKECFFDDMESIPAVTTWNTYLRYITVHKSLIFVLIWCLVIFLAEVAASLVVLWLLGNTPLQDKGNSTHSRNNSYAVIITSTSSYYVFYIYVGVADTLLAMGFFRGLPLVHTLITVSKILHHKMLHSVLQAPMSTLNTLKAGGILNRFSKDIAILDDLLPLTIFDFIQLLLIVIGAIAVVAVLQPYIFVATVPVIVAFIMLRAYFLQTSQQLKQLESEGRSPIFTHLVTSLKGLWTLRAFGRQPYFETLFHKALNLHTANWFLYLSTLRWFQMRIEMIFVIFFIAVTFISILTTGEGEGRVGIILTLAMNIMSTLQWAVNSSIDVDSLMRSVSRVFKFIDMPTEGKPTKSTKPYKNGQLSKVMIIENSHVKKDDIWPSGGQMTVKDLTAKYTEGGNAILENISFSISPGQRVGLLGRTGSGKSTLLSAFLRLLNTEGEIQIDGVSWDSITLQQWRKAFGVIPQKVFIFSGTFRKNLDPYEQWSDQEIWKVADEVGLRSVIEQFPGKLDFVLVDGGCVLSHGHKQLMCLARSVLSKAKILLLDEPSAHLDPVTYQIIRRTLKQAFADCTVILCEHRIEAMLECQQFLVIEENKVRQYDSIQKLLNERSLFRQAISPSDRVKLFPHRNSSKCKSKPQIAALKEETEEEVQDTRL

For `O=c1c(-c2ccc(O)cc2)coc2cc(O)cc(O)c12` [Genistein, 4',5,7-trihydroxyisoflavone], the inhibition of topoisomerases [1] is given as “inhibits”, the “inhibition of acid secretion and osteopathic bone resorption” value [2] is given as “effectively inhibits acid secretion and osteopathic bone resorption” and the channel open time ([3]; ATP with genistein, stated for both wt- and ΔF508-CFTR) is given as 2,033±173 milliseconds. The “increase of ATP-dependent channel current by genistein” value ([3]; genistein, n=7) was 2.3±0.5 fold, the “inhibition of protein phosphatase” value [4] was “no protein phosphatase has been shown to be inhibited by genistein” and the “inhibition of tyrosine kinases” value [5] was “inhibits”. The “patches showing channel activity” value ([6]; 10 μM forskolin plus 50 μM genistein, cells grown at 37° C.) was “Approximately 10%”, the “average increase in mean-current amplitude by genistein” value ([6]; 50 μM genistein on 10 μM forskolin, cells cultured at 27° C., 23 patches, 50 µM) was 18.6±2.2 fold and 19 fold and the patches responding ([6]; forskolin plus genistein, cells grown at 27° C., 44 of 82) was 54%. For the same compound, the “enhancement of ΔF508-CFTR channel activity by genistein” value [7] was 19±11 fold, the “magnitude of potentiation by genistein after patch cramming” value ([8]; patch crammed into a different NIH/3T3-CFTR cell) was “similar” and the “increase of mean current by genistein” value ([8]; wt-CFTR crammed into NIH/3T3-ΔF508 cell, 10 μM forskolin, 50 μM genistein, n=3) was 3.2±0.3 fold. The “average increase in mean-current amplitude by genistein” value [9] was 3.1±0.7 fold.
